Data on 22 molecules can be found in ChEMBL document CHEMBL3872282, “Dithiocarbamates effectively inhibit the β-carbonic anhydrase from the dandruff-producing fungus Malassezia globosa” (Bioorg Med Chem, 2017).

A short description of this assay: Inhibition of Malassezia globosa beta-carbonic anhydrase preincubated for 15 mins prior to testing by phenol red-based stopped-flow CO2 hydration assay.

Molecule `O=C(O)C1CCCCN1C(=S)S` (configuration not stated) showed a Ki of 2400 nM.

As to `OCCCCCNC(=S)S`, the inhibition constant (Ki) amounted to 383 nM. The same measure for `S=C(S)N[C@H]1CN2CCC1CC2`: 490 nM; for `S=C(S)N[C@@H]1CN2CCC1CC2`: 724 nM. The same measure for `OC1CCCN(C(=S)S)C1` (configuration not stated): 678 nM; for `O=C(O)C1CCCN(C(=S)S)C1` (configuration not stated): 718 nM.

As to `O=C(O)[C@@H]1CCCN(C(=S)S)C1`, the affinity, expressed as Ki, was 577 nM. Regarding `O=C(O)[C@H]1CCCN(C(=S)S)C1`, the Ki amounted to 929 nM. For `O=C(O)C1CCN(C(=S)S)CC1`, the affinity corresponds to a Ki of 556 nM.

As for `CC1COCCN1C(=S)S` (configuration not stated), the Ki worked out at 660 nM. The same measure for `O=C(O)C1COCCN1C(=S)S` (configuration not stated): 4740 nM; for `O=C(CN1CCN(C(=S)S)CC1)NC1CCCCC1`: 801 nM; for `S=C(S)NCCc1ccccc1`: 4620 nM. In turn, `NS(=O)(=O)c1ccc(CCNC(=S)S)cc1` had a Ki of 914 nM. In the case of `OCCCCNC(=S)S` it was 6240 nM. The molecule `CC(C)(C)OC(=O)NC1CCCN(C(=S)S)C1` (configuration not stated) gave a Ki of 644 nM. In the case of `OCCCNC(=S)S` it was 3190 nM; in that of `S=C(S)N1CCCCC1`, 773 nM; in that of `CC(=O)NC1CCCN(C(=S)S)C1` (configuration not stated), 885 nM. With `CN(C)CCNC(=S)S`, the Ki amounted to 2980 nM. In the case of `S=C(S)NC1CN2CCC1CC2` (racemic) it was 643 nM; in that of `CC(=O)Nc1nnc(S(N)(=O)=O)s1` [ACETAZOLAMIDE], 74000 nM.
